Source: PMC12487594, “Contusive spinal cord injury causes Nav1.8 dysfunction to upregulate small sensory neuron excitability” (The Journal of Physiology, 2025)
Peptide text beside a SMILES is read from it. * marks the point of attachment. Cbz = O=C(OCc1ccccc1)*; Boc = CC(C)(C)OC(=O)*

Target: T1, Nav1.8 (Homo sapiens, UniProt Q9Y5Y9)
T1 construct: gene SCN10A
Experiment: whole-cell patch clamp of Nav1.[…] + FHF4A in ND7/[…] cells ([…] TTX), […] h pre-incubation; transient current
Format: cell-based

T1 sequence (Q9Y5Y9 whole entry, looked up): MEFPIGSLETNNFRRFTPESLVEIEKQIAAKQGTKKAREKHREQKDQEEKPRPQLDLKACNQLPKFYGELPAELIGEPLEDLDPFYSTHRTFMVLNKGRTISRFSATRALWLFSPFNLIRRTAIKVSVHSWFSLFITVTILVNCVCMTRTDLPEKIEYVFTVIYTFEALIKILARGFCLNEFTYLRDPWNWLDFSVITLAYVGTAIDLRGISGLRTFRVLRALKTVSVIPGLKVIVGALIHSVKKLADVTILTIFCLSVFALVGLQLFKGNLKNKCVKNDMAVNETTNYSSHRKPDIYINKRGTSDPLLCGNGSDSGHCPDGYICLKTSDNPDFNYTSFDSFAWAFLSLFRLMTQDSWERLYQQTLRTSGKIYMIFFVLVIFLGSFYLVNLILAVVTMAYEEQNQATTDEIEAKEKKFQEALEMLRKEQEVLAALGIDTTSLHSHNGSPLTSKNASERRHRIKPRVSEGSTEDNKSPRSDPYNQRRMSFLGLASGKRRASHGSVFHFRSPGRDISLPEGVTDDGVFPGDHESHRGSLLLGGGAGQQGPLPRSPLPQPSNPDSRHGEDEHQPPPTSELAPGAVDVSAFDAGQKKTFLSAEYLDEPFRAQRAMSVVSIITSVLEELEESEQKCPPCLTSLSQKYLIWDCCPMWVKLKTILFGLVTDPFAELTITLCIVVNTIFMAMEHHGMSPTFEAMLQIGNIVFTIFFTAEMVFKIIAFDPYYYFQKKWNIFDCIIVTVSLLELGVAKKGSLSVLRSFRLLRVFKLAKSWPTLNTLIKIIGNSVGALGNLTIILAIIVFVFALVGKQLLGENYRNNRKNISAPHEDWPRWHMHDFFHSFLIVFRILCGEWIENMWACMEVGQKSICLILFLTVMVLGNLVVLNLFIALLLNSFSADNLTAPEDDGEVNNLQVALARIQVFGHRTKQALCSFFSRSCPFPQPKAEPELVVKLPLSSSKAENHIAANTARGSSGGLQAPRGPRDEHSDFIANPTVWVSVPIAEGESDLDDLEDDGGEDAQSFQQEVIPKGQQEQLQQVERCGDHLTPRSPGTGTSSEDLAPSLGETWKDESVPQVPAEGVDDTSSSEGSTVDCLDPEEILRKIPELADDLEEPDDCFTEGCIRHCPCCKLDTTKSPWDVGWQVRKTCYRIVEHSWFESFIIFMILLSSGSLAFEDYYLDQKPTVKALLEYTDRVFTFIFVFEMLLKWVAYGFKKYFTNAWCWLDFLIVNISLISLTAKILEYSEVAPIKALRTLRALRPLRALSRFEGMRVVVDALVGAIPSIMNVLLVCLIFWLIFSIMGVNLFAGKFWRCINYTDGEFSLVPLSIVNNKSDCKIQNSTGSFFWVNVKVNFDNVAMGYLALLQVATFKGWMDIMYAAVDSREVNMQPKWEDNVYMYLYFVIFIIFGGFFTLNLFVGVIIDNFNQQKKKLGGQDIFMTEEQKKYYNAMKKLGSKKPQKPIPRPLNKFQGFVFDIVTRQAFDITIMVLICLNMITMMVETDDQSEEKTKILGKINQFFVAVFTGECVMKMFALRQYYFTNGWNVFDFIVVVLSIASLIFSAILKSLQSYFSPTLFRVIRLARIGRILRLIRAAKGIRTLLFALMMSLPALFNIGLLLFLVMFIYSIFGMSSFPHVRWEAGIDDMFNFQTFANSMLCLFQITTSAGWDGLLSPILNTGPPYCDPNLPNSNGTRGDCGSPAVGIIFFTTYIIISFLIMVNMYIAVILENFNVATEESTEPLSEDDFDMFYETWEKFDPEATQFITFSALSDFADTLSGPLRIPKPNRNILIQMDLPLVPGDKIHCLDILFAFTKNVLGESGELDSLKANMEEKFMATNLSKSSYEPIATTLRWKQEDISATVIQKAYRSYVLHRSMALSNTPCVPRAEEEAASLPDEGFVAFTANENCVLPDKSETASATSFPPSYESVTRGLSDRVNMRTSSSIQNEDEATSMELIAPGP

CC(C)C[C@H](NC(=O)[C@H](Cc1ccccc1)NC(=O)OCc1ccccc1)C(=O)N1CCC[C@H]1C(=O)N[C@@H](CCCCNC(=O)OC(C)(C)C)C(N)=O [ZL0177] (Cbz-FLPK(Boc)-NH2)
IC50: ~19.5 µM
